Consider one molecule from patent US11318113B2, “Compounds for the treatment of diseases linked to mitochondrial reactive oxygen species (ROS) production” (OP2 DRUGS, priority 2015, dated 2022).

Test [1] relates to other mitochondrial sites of ROS production (site IIIQO, site IF). As to the kind of experiment: Mitochondrial ROS/H2O2 production (Amplex Red/HRP) after rotenone, antimycin A, myxothiazol. The class given is biochemical, rat. The conditions noted are these: AOL 5 to 80 μM. Here is the method:
(§1) Rates of ROS/H2O2 production from heart mitochondria were assessed through the oxidation of the colorless, non-fluorescent indicator Amplex Red in the presence of exogenous horseradish peroxidase (HRP, EC 1.11.1.7, Sigma). H2O2 reacts with Amplex Red in a 1:1 stoichiometry, yielding the fluorescent compound resorufin (excitation: 560 nm; emission: 585 nm) which is stable once formed. Fluorescence was measured continuously with a spectro-fluorometer equipped with temperature control and stirring (SAFAS Xenius, Monaco). Isolated mitochondria (0.1 mg/mL) were incubated in the same experimental buffer than previously, supplemented with 15 μM Amplex Red and 10 μg/mL HRP. Glutamate (5 mM)/malate (2.5 mM) together with succinate (5 mM) were used as complex I and complex II substrates, respectively. Experiments were conducted under non-phosphorylating conditions in the presence of 15 μM atractyloside, i.e. under state IV conditions where mitochondrial membrane […]. […]
(§2) FIG. 3 illustrates the effect of the presence of increasing concentrations of AOL (from 5 to 80 μM) on ROS/H2O2 production measured under the different conditions defined in FIG. 2. […]

The test system of a further test is Sod2-KO mice. As to the kind of experiment: Sod2-KO mice: lifespan, heart SDH activity, liver Oil Red O staining. The class given is in vivo, mouse. An excerpt:
Mice deficient in mitochondrial Mn-Superoxide Dismutase (Sod2-KO) on a CD1-background were used. This genetic alteration leads to an adverse phenotype and the death of animals at an average of 8 days old. Mitochondrial superoxide dismutase is a free radical scavenging enzyme which transforms superoxide (highly reactive) into hydrogen peroxide (less reactive), that could then cross mitochondrial membranes and be detoxified by matrix and cytosolic anti-oxidant systems. The aim of this study was to test if AOL could rescue the Sod2-KO phenotype through its activity on IQ superoxide production.
After birth, pups were genotyped (3 day-old) and the litter size was reduced to 6 pups per cage. Animals were then treated (AOL in Kolliphor®—5 mg/kg) or not (Kolliphor® only, noted KOL below). […] Two studies were conducted on two different generations from the same parents: lifespan; and succinate dehydrogenase activity in heart (SDH) and Oil Red O staining in liver. Animals were weighed and injected (intraperitoneal) daily.
Succinate dehydrogenase activity is a marker of superoxide in the mitochondrial matrix. Thus, a lack of SOD2 is associated with a decrease of SDH activity in heart. The aim of this experiment was to test whether or not AOL could restore SDH activity in KO mice.
However, the direct link between superoxide/hydrogen peroxide production and liver lipid accumulation is not established. The aim of the study was to test the potency of AOL to prevent liver lipid accumulation in Sod2-KO mice.
Animals were injected once a day from 3 days old until their death.
In this study, animals were treated daily (5 mg/kg) from day 3 to day 5. Heart and liver were harvested at day 6.

The test system of test [2] is site IQ of complex I of the mitochondrial respiratory chain. As to the kind of experiment: Mitochondrial ROS/H2O2 production (Amplex Red/HRP), no complex inhibitor, ATR only. The class given is biochemical, rat. The conditions noted are these: glutamate+malate+succinate, ATR (state 4); AOL 5 to 80 μM. Here is the method: as §1, §2

With `COc1ccc(-c2cc(=S)ss2)cc1` [AOL, 5-(4-methoxyphenyl)-3H-1,2-dithiole-3-thione], in test [1], the “ROS/H2O2 production under the other conditions” value is “no statistical differences were observed”. Also, in the test with Sod2-KO mice (5 mg/kg daily day 3 to day 5), the “liver lipid droplets density (Oil Red O)” value was “decreased” and the “liver total lipid area (Oil Red O)” value is listed as “able to restore”. The “SDH activity in heart” value in the test on Sod2-KO mice (5 mg/kg daily day 3 to day 5, not restored to WT levels) was “very slight increase”. Besides, in the test on Sod2-KO mice (5 mg/kg ip daily), the “lifespan extension as compared to untreated mice” value is “up to 2 days”; the “median lifespan and maximal lifespan” value is listed as “slightly improved”. Besides, in the test on Sod2-KO mice (5 mg/kg ip daily, day 8 to 12), the “lower body weight and body weight gain of KO mice” value is “tends to alleviate”. In addition, the “decrease of ROS/H2O2 production measured in the absence of inhibitor” value in test [2] is given as “approximately 80%”.
